Earlier results in patent US20140088140A1 (TEVA PHARMACEUTICAL INDUSTRIES, LTD., priority 2012, published 2014).

Key:
[1] = tested on: genes related to antigen presentation and corresponding inflammatory pathways; details: mainly via the NFkB pathway
Th1 / Th2 T helper cells = details: animal studies
[2] = in vivo
Multiple Sclerosis = details: two phase III trials
[3] = tested on: Huntington's disease patients; details: 45 mg or 90 mg daily for 6 months

Compound | expression of genes related to antigen presentation and inflammatory pathways [1] | Th1 to Th2 shift (Th1 / Th2 T helper cells) | oral bioavailability [2] | safety and tolerability profile (Multiple Sclerosis) | tertiary endpoint UHDRS-TMS (changes in motor function) and individual mMS items (gait, dysarthria) [3] | symptomatic relief incl. hand movements, gait and balance (patients with HD)
CCN(C(=O)c1c(O)c2c(Cl)cccc2n(C)c1=O)c1ccccc1 [laquinimod] | induced suppression | shift with an anti-inflammatory profile | high oral bioavailability | favorable safety and tolerability profile |  | 
CCCN1CCC(c2cccc(S(C)(=O)=O)c2)CC1 [pridopidine, 4-[3-(methylsulfonyl)phenyl]-1-propyl-piperidine] |  |  |  |  | statistically significant effect of treatment | significant symptomatic relief
